Legend:
[1] = test system: MI-induced rat model; test: Whole body composition, heart, lung weight and infarct size in rats with CHF after LAD ligation; format: in vivo, Sprague-Dawley rats; settings: for B.W / Fat mass / Fluid mass / Infarct size / LV weight / LV weight/B.W. / Lean mass / Lung weight / Lung weight/B.W. / RV weight / RV weight/B.W.: 13th week of MI, mean ± SEM
Method: (§1) Male Sprague-Dawley® rats (250-300 g) are anesthetized by using 5% isoflurane and a left thoracotomy was performed. The left main anterior descending artery (LAD) was ligated to induce myocardial infarction. In addition, sham animals (n=10) were subjected to the same surgical procedure without ligation of the LAD.
(§2) After two weeks, rats were treated with 2.5 pmol/kg/min GLP-1 (n=11) (GLPL), 25 pmol/kg/min GLP-1 (n=12) (GLPH), 1.67 pmol/kg/min an exendin agonist, AC3174, (n=12) (AC3174L), 5 pmol/kg/min exendin agonist (n=7) (AC3174H), or vehicle (n=14) via subcutaneous infusion for 11 weeks. Echocardiography was performed at the 3rd, 5th, 9th, and 13th week of myocardial infarction. Left ventricular (LV) end systolic dimension (ESD) and diastolic dimension (EDD), LV systolic volume and diastolic volume, left atrial volume were recorded. At the 13th week of MI, the hearts were excised, the LV mass were weighed and LV mass/body weight ratio was determined.

[2] = test system: MI-induced rat model; test: Echocardiography and cardiac function (E/A ratio, LVEDP, cardiac output, +dp/dtmax, LV dimensions) in rats after myocardial infarction; format: in vivo, Sprague-Dawley rats
Method: as §1, §2

[3] = test system: MI-induced rat model; test: Treadmill test, plasma lactate and insulin sensitivity in rats after myocardial infarction; format: in vivo, Sprague-Dawley rats
[4] = test system: cloned GLP-1 receptor; settings: transfected cells; cited from earlier work
[5] = GLPH: GLP-1 25 pmol/kg/min s.c. infusion 11 weeks
[6] = GLPL: GLP-1 2.5 pmol/kg/min s.c. infusion 11 weeks

Substance: GLP-1 (7-36) amide
- reduction of infarct size compared to the control group ([1]; 25 pmol/kg/min s.c. infusion, p<0.05): 30%
- B.W [1, 5]: 518 ± 12 g
- Fat mass [1, 5]: 51 ± 9 g
- Fluid mass [1, 5]: 331 ± 15 g
- Infarct size [1, 5]: 29 ± 2%
- LV weight [1, 5]: 1.13 ± 0.03 g
- LV weight/B.W. [1, 5]: 0.22 ± 0.01 %
- Lean mass [1, 5]: 35 ± 2 g
- Lung weight [1, 5]: 1.66 ± 0.13 g
- Lung weight/B.W. [1, 5]: 0.32 ± 0.02 %
- RV weight [1, 5]: 0.23 ± 0.01 g
- RV weight/B.W. [1, 5]: 0.04 ± 0.00 %
- B.W [1, 6]: 523 ± 14 g
- Fat mass [1, 6]: 45 ± 6 g
- Fluid mass [1, 6]: 332 ± 11 g
- Infarct size [1, 6]: 30 ± 2%
- LV weight [1, 6]: 1.26 ± 0.05 g
- LV weight/B.W. [1, 6]: 0.24 ± 0.01%
- Lean mass [1, 6]: 37 ± 2 g
- Lung weight [1, 6]: 1.94 ± 0.35 g
- Lung weight/B.W. [1, 6]: 0.37 ± 0.07%
- RV weight [1, 6]: 0.22 ± 0.01 g
- RV weight/B.W. [1, 6]: 0.04 ± 0.00 %
- effect on LV weight (summary) ([1]; chronic treatment): attenuated
- effect on infarction size (summary) ([1]; chronic treatment): reduced
- effect on the increase of E/A ratio during CHF progression ([2]; at each dose, s.c. infusion 11 weeks, 13 weeks after MI, vs control (+116% vs sham)): prevented increases
- effect on enlargement of LV chamber ([2]; chronic treatment): slowed
- effect on cardiac output ([2]; s.c. infusion 11 weeks, control reduced by 19% vs sham): normalized
- effect on contractility (+dp/dtmax) ([2]; s.c. infusion 11 weeks, control reduced by 24% vs sham): normalized
- effect on remodeling (LV mass, LV end diastolic dimension and systolic dimension increase) ([2]; s.c. infusion 11 weeks, progression of CHF): significantly reduced
- effect on LV end diastolic pressure (LVEDP) elevation ([2]; s.c. infusion 11 weeks, vehicle group +97% vs sham): eliminated
- effect on exercise capacity (EC) ([3]; at each dose, treadmill test): significantly improved
- effect on exercise efficiency (EC/VO2) ([3]; at each dose, treadmill test): significantly improved
- effect on baseline plasma lactate ([3]; chronic treatment): attenuated
- effect on exercise capacity/peak lactate ratio ([3]; chronic treatment): improved
- effect on insulin sensitivity ([3]; chronic treatment): improved

Substance: exendin[9-39]: truncated exendin peptide, a carboxyamidated molecule, antagonist of GLP-1
- action at the cloned GLP-1 receptor (cAMP) [4]: antagonist

Source: US8946149B2, “Use of exendin and analogs thereof to delay or prevent cardiac remodeling” (Amylin Pharmaceuticals, LLC, priority 2005, dated 2015)
